What was measured:
gastric acid secretion [1] = assay: Inhibitory effect on gastric acid secretion, perfused stomach preparation of anesthetized rat (histamine stimulated); format: in vivo, Wistar strain rats; conditions: intravenous; for ED100: Rattus norvegicus, cumulative, histamine 30 μg/kg/min, read-out: Dose for complete inhibition; for Duration: time from complete inhibition until pH of perfusate became 4
Procedure: (i) Perfused stomach preparation of anesthetized rat [according to M. N. Ghosh and H. O. Schild: Brit. J. Pharmacol. 13, 54 (1958)]
Wistar strain rats (male, 200 to 250 g) starved for 18 hours were anesthetized with urethane and then subjected to laparotomy, after which the forestomach region of the stomach of each rat was incised. The whole interior of the stomach was sufficiently washed with physiological saline, and the cut edges were sutured. A silicon tube was inserted into the stomach to a length of about 5 mm from the duodenum side and fixed. Subsequently, the stomach was perfused with physiological saline adjusted to a pH of about 10 with an aqueous sodium hydroxide solution at a constant rate (1 ml/min) through an oral sonde, and the change in pH of the perfusate which had flowed out through the silicone tube was continuously recorded. During the perfusion, histamine (30 μg/kg/min) was continuously injected, as an agent for stimulating gastric acid secretion, through the femoral vein at a rate of 0.3 ml/min. Each drug was intravenously administered when the acid secretion became almost constant (pH 3.3±0.2), and cumulatively administered when the inhibition of acid secretion at each dose reached a plateau.
The number of experiments was three for each dose.

gastric acid secretion [2] = assay: Inhibitory effect on gastric acid secretion, pylorus ligation method (histamine); format: in vivo, Wistar strain rats; conditions: Rattus norvegicus, oral, histamine 25 mg/kg s.c., read-out: Inhibition percentage (gastric acid secretion)
Procedure: Five to six Wistar strain rats (male, 190 to 230 g) per group were starved for 35 hours, after which each drug was orally administered, and after 2 hours, the pylorus of each rat was ligated under ether anesthesia. […] After 3 hours, each rat was killed, after which the cardiac portion was ligated, and the stomach was removed. After 1 ml of distilled water was injected into the stomach, the gastric juice was collected by centrifugation and its volume was measured. The acidity of the gastric juice was measured by titrating 1 ml of the gastric juice with a 0.1N aqueous sodium hydroxide solution, taking pH 7.0 as the end-point. Physiological saline was administered to a control group.
The inhibition percentage of gastric acid secretion was determined from the following equation: [formula]

Indomethacin ulcer = assay: Anti-ulcer activity: Indomethacin ulcer; format: in vivo, Wistar strain rats; conditions: for Potency ratio: Cimetidine = 1; for ED50: 5 h, Indomethacin ulcer, read-out: ID50 (the source's name)
Procedure: Six Wistar strain rats (male, 200 to 250 g) per group were starved for 24 hours, after which each drug was orally administered, and after 30 minutes, Indomethacin was injected subcutaneously at a dose of 30 mg/kg. After 5 hours, each rat was killed, and the stomach was removed and fixed with 3% formalin, after which the lengths of ulcers formed in the stomach was measured under the binocular stereoscopic microscope (10×), and the sum total of the lengths was taken as the ulcer index. To a control group was administered 0.5% Tween 80 physiological saline. The inhibition percentage was determined from the following equation: [formula]

[3] = tested on: Stress ulcer induced by water-immersion; assay: Anti-ulcer activity: Stress ulcer induced by water-immersion; format: in vivo, Wistar rats; conditions: for Inhibition percentage / ED50: oral; for Potency ratio: Cimetidine = 1; for ED50: Rattus norvegicus, 15 h, water-immersion stress ulcer, read-out: ID50 (the source's name)
Procedure: (iii) Stress ulcer induced by water-immersion
An experiment was carried out according to the method of Takagi et al. [K. Takagi et al., Jap.
Six Wistar rats (male, 230 to 280 g) per group were starved for 24 hours, after which each drug was orally administered. After 30 minutes, the rats were placed in stress cage, immersed in water at 23° C. to the depth of xiphoid, and allowed to stand therein for 15 hours. Thereafter, the stomach of each rat was removed and then fixed with 3% formalin, after which the areas of the ulcers formed were measured under the binocular stereoscopic microscope (10×), and the sum total of the areas was taken as the ulcer index. To a control group was administered 0.5% Tween 80 physiological saline.
The inhibition percentage was determined from the following equation: [formula]

Reserpine ulcer = assay: Anti-ulcer activity: Reserpine ulcer; format: in vivo, Wistar strain rats; conditions: oral; for ED50: Rattus norvegicus, 18 h, reserpine ulcer, read-out: ID50 (the source's name)
Procedure: An experiment was carried out according to the method of Adami et al. [E. Adami et al., Arch. int.
Ten Wistar strain rats (male, 180 to 200 g) per group were starved for 30 hours, after which each drug was orally administered, and after 1 hour, reserpine was injected subcutaneously at a dose of 10 mg/kg. After 18 hours, the stomach was removed and fixed with 3% formalin, and thereafter the lengths of the ulcers formed in the stomach were measured with callipers. The measured values were converted to the scores described below, and the sum total of the scores was taken as the ulcer index.
That is to say, 1 to 5 pin point ulcers are scored as 1, 6 or more pin point ulcers are scored as 2, ulcers of 1 mm or less in length are scored as 1, ulcers of 1 to 2 mm in length are scored as 2, ulcers of 2 to 4 mm in length are scored as 4, and ulcers of 4 mm or more in length are scored as 8.
To a control group was administered 0.5% Tween 80 physiological saline. The inhibition percentage was determined from the following equation: [formula]

[4] = Rattus norvegicus, oral, read-out: Inhibition percentage

Q: Which results are given for O=[N+]([O-])C=C(NCCCOc1cccc(CN2CCCCC2)c1)NCC(O)c1ccc(Cl)cc1 (stereo not drawn) [compound 16, N-[2-(4-chlorophenyl)-2-hydroxyethyl]-2-nitro-N'-[3-(3-piperidinomethylphenoxy)propyl]-1,1-ethenediamine]?
A: ED100 (gastric acid secretion [1]): 0.1 mg/kg; Duration (gastric acid secretion [1]): 304 min; inhibition in vivo at 3 mg/kg (gastric acid secretion [2]): 89%

Q: Which ED100 (gastric acid secretion [1]) does the source give for COc1ccc(C(O)CNC(=C[N+](=O)[O-])NCCCOc2cccc(CN3CCCCC3)c2)cc1 (stereo not drawn) [compound 14, N-[2-hydroxy-2-(4-methoxyphenyl)ethyl]-2-nitro-N'-[3-(3-piperidinomethylphenoxy)propyl]-1,1-ethenediamine] here?
A: 0.15 mg/kg

Q: And the Duration (gastric acid secretion [1])?
A: 158 min

Q: What about the inhibition in vivo at 1 mg/kg (gastric acid secretion [2]) of the same molecule?
A: 61%

Q: For Cc1cccc(C(O)CNC(=C[N+](=O)[O-])NCCSCc2cc(C)c(CN(C)C)s2)c1 (stereo not drawn) [compound 29, N-{2-[[5-(dimethylamino)methyl-4-methyl-2-thienyl]methylthio]ethyl}-N'-[2-hydroxy-2-(3-methylphenyl)ethyl]-2-nitro-1,1-ethenediamine], which ED100 (gastric acid secretion [1]) is on record?
A: 0.3 mg/kg

Q: What about the Duration (gastric acid secretion [1]) of the same molecule?
A: > 177 min

Q: What about the inhibition in vivo at 1 mg/kg (gastric acid secretion [2]) of the same molecule?
A: 56%

Q: And the Potency ratio (Indomethacin ulcer)?
A: 31.3

Q: And the ED50 (Indomethacin ulcer; Rattus norvegicus, oral)?
A: 0.88 mg/kg

Q: And the inhibition in vivo at 0.3 mg/kg (Indomethacin ulcer; Rattus norvegicus, 0.3 mg/kg, oral, read-out: Inhibition percentage)?
A: 8%

Q: And the inhibition in vivo at 1 mg/kg (Indomethacin ulcer; [4])?
A: 57%

Q: What about the Inhibition percentage ([3]; 1 mg/kg) of the same molecule?
A: 37%

Q: And the Inhibition percentage ([3]; 3 mg/kg)?
A: 78%

Q: And the Potency ratio [3]?
A: 11.1

Q: What about the ED50 [3] of the same molecule?
A: 1.4 mg/kg

Q: What about the Inhibition percentage (Reserpine ulcer; 1 mg/kg) of the same molecule?
A: 21%

Q: What about the Inhibition percentage (Reserpine ulcer; 3 mg/kg) of the same molecule?
A: 41%

Q: And the ED50 (Reserpine ulcer)?
A: 4.7 mg/kg

Q: Which ED100 (gastric acid secretion [1]) does the source give for Cc1ccsc1C(O)CNC(=C[N+](=O)[O-])NCCCOc1cccc(CN2CCCCC2)c1 (stereo not drawn) [compound 18, N-[2-hydroxy-2-(3-methyl-2-thienyl)ethyl]-2-nitro-N'-[3-(3-piperidinomethylphenoxy)propyl]-1,1-ethenediamine] here?
A: 0.3 mg/kg

Q: And the Duration (gastric acid secretion [1])?
A: 247 min

Q: What about the inhibition in vivo at 3 mg/kg (gastric acid secretion [2]) of the same molecule?
A: 87%

Q: Cc1cc(CSCCNC(=C[N+](=O)[O-])NCC(O)c2cccc(Br)c2)sc1CN(C)C (stereo not drawn) [compound 32, N-[2-(3-bromophenyl)-2-hydroxyethyl]-N'-{2-[[5-(dimethylamino)methyl-4-methyl-2-thienyl]methylthio]ethyl}-2-nitro-1,1-ethenediamine] was tested. Which ED100 (gastric acid secretion [1]) did it give?
A: 0.3 mg/kg

Q: What about the Duration (gastric acid secretion [1]) of the same molecule?
A: > 220 min

Q: What about the inhibition in vivo at 1.5 mg/kg (gastric acid secretion [2]; 1.5 mg/kg) of the same molecule?
A: 60%

Q: What about the Potency ratio (Indomethacin ulcer) of the same molecule?
A: 15.2

Q: And the ED50 (Indomethacin ulcer; Rattus norvegicus, oral)?
A: 1.81 mg/kg

Q: What about the inhibition in vivo at 1 mg/kg (Indomethacin ulcer; [4]) of the same molecule?
A: 24%

Q: And the inhibition in vivo at 3 mg/kg (Indomethacin ulcer; Rattus norvegicus, 3 mg/kg, oral, read-out: Inhibition percentage)?
A: 72%

Q: And the Inhibition percentage (Reserpine ulcer; 1 mg/kg)?
A: 38%

Q: And the Inhibition percentage (Reserpine ulcer; 3 mg/kg)?
A: 55%

Q: And the ED50 (Reserpine ulcer)?
A: 2.15 mg/kg

Q: Which results are given for Cc1ccsc1C(O)CNC(=C[N+](=O)[O-])NCCSCc1ccc(CN(C)C)o1 (stereo not drawn) [compound 7, N-{2-[[5-(dimethylamino)methyl-2-furyl]methylthio]ethyl}-N'-[2-hydroxy-2-(3-methyl-2-thienyl)ethyl]-2-nitro-1,1-ethenediamine]?
A: ED100 (gastric acid secretion [1]): 0.1 mg/kg; Duration (gastric acid secretion [1]): 227 min; inhibition in vivo at 3 mg/kg (gastric acid secretion [2]): 88%

Q: Which ED100 (gastric acid secretion [1]) does the source give for Cc1cc(CSCCNC(=C[N+](=O)[O-])NCC(O)c2cccc(C(F)(F)F)c2)sc1CN(C)C (stereo not drawn) [compound 33, N-{2-[[5-(dimethylamino)methyl-4-methyl-2-thienyl]methylthio]ethyl}-N'-[2-hydroxy-2-(3-trifluoromethylphenyl)ethyl]-2-nitro-1,1-ethenediamine] here?
A: 0.3 mg/kg

Q: And the Duration (gastric acid secretion [1])?
A: > 240 min

Q: And the inhibition in vivo at 1 mg/kg (gastric acid secretion [2])?
A: 55%

Q: And the Inhibition percentage ([3]; 1 mg/kg)?
A: 32%

Q: What about the Inhibition percentage ([3]; 3 mg/kg) of the same molecule?
A: 75%

Q: What about the Potency ratio [3] of the same molecule?
A: 9.8

Q: And the ED50 [3]?
A: 1.58 mg/kg

Q: What about the Inhibition percentage (Reserpine ulcer; 1 mg/kg) of the same molecule?
A: 42%

Q: And the Inhibition percentage (Reserpine ulcer; 3 mg/kg)?
A: 68%

Q: What about the ED50 (Reserpine ulcer) of the same molecule?
A: 1.4 mg/kg

Q: How did the ED100 (gastric acid secretion [1]) turn out when CN(C)Cc1ccc(CSCCNC(=C[N+](=O)[O-])NCC(O)c2ccc(Cl)cc2)o1 (stereo not drawn) [compound 5, N-[2-(4-chlorophenyl)-2-hydroxyethyl]-N'-{2-[[5-(dimethylamino)methyl-2-furyl]methylthio]ethyl}-2-nitro-1,1-ethenediamine] was run?
A: 0.1 mg/kg

Q: And the Duration (gastric acid secretion [1])?
A: 192 min

Q: What about the inhibition in vivo at 3 mg/kg (gastric acid secretion [2]) of the same molecule?
A: 80%

Q: What does the source list for O=[N+]([O-])C=C(NCCCOc1cccc(CN2CCCCC2)c1)NCC(O)c1cccc(O)c1 (stereo not drawn) [compound 13, N-[2-hydroxy-2-(3-hydroxyphenyl)ethyl]-2-nitro-N'-[3-(3-piperidinomethylphenoxy)propyl]-1,1-ethenediamine]?
A: ED100 (gastric acid secretion [1]): 0.1 mg/kg; Duration (gastric acid secretion [1]): > 240 min; inhibition in vivo at 1 mg/kg (gastric acid secretion [2]): 51%

Q: What does the source list for O=[N+]([O-])C=C(NCCCOc1cccc(CN2CCCCC2)c1)NCC(O)c1ccccc1 (stereo not drawn) [compound 11, N-(β-hydroxyphenethyl)-2-nitro-N'-[3-(3-piperidinomethylphenoxy)propyl]-1,1-ethenediamine]?
A: ED100 (gastric acid secretion [1]): 0.05 mg/kg; Duration (gastric acid secretion [1]): 123 min; inhibition in vivo at 3 mg/kg (gastric acid secretion [2]): 79%; inhibition in vivo at 10 mg/kg (gastric acid secretion [2]): 81%

Q: What does the source list for CN(C)Cc1ccc(CSCCNC(=C[N+](=O)[O-])NCC(O)c2cccs2)o1 (stereo not drawn) [compound 6]?
A: ED100 (gastric acid secretion [1]): 0.1 mg/kg; Duration (gastric acid secretion [1]): 132 min; inhibition in vivo at 3 mg/kg (gastric acid secretion [2]): 67%; inhibition in vivo at 10 mg/kg (gastric acid secretion [2]): 93%
